Assay: xn = mol fraction of the nth substance listed
Settings: 96.7 kPa, Liquid; for viscosity: Capillary tube (Ostwald / Ubbelohde) method; for mass density: Vibrating tube method

CCCCCCn1cc[n+](C)c1.[Cl-] [1-hexyl-3-methylimidazolium chloride] + CN(C)C=O
Settings | mass density [kg/m3] | viscosity [mPa·s]
303.15 K, x1 = 0.134 | 974.15 | 2.479
303.15 K, x1 = 0.265 | 995.06 | 8.757
303.15 K, x1 = 0.352 | 1004.26 | 20.21
303.15 K, x1 = 0.457 | 1013.06 | 47.11
303.15 K, x1 = 0.591 | 1021.21 | 158.5
303.15 K, x1 = 0.764 | 1029.04 | 666.71
303.15 K, x1 = 0.871 | 1032.74 | 2341.7
303.15 K, x1 = 1 | 1036.07 | 5718.5
308.15 K, x1 = 0.134 | 970.01 | 2.265
308.15 K, x1 = 0.265 | 991.32 | 7.582
308.15 K, x1 = 0.352 | 1000.71 | 16.69
308.15 K, x1 = 0.457 | 1009.56 | 38
308.15 K, x1 = 0.591 | 1018.02 | 120.91
308.15 K, x1 = 0.764 | 1026.03 | 466.32
308.15 K, x1 = 0.871 | 1029.81 | 1478.3
308.15 K, x1 = 1 | 1033.22 | 3430.8
313.15 K, x1 = 0.134 | 965.87 | 2.075
313.15 K, x1 = 0.265 | 987.59 | 6.651
313.15 K, x1 = 0.352 | 997.11 | 14.24
313.15 K, x1 = 0.457 | 1006.09 | 30.89
313.15 K, x1 = 0.591 | 1014.86 | 92.58
313.15 K, x1 = 0.764 | 1023.06 | 333.82
313.15 K, x1 = 0.871 | 1026.9 | 1002.9
313.15 K, x1 = 1 | 1030.38 | 2146.1
318.15 K, x1 = 0.134 | 961.73 | 1.962
318.15 K, x1 = 0.265 | 983.87 | 5.854
318.15 K, x1 = 0.352 | 993.45 | 12.13
318.15 K, x1 = 0.457 | 1002.63 | 25.38
318.15 K, x1 = 0.591 | 1011.71 | 72.08
318.15 K, x1 = 0.764 | 1020.1 | 241.58
318.15 K, x1 = 0.871 | 1023.98 | 685.17
318.15 K, x1 = 1 | 1027.56 | 1390.4
323.15 K, x1 = 0.134 | 957.59 | 1.797
323.15 K, x1 = 0.265 | 980.14 | 5.212
323.15 K, x1 = 0.352 | 989.87 | 10.45
323.15 K, x1 = 0.457 | 999.19 | 21.15
323.15 K, x1 = 0.591 | 1008.57 | 57.17
323.15 K, x1 = 0.764 | 1017.14 | 178.79
323.15 K, x1 = 0.871 | 1021.09 | 479.12
323.15 K, x1 = 1 | 1024.75 | 928.1
328.15 K, x1 = 0.134 | 953.45 | 1.656
328.15 K, x1 = 0.265 | 976.43 | 4.647
328.15 K, x1 = 0.352 | 986.25 | 9.067
328.15 K, x1 = 0.457 | 995.78 | 17.82
328.15 K, x1 = 0.591 | 1005.44 | 45.82
328.15 K, x1 = 0.764 | 1014.17 | 135.89
328.15 K, x1 = 0.871 | 1018.25 | 344.77
328.15 K, x1 = 1 | 1021.92 | 638.79
333.15 K, x1 = 0.134 | 949.31 | 1.544
333.15 K, x1 = 0.265 | 972.72 | 4.175
333.15 K, x1 = 0.352 | 982.75 | 7.933
333.15 K, x1 = 0.457 | 992.43 | 15.17
333.15 K, x1 = 0.591 | 1002.31 | 37.41
333.15 K, x1 = 0.764 | 1011.21 | 104.75
333.15 K, x1 = 0.871 | 1015.42 | 253.05
333.15 K, x1 = 1 | 1019.13 | 453.59
338.15 K, x1 = 0.134 | 945.16 | 1.426
338.15 K, x1 = 0.265 | 969.01 | 3.776
338.15 K, x1 = 0.352 | 979.34 | 7.016
338.15 K, x1 = 0.457 | 989.15 | 13.04
338.15 K, x1 = 0.591 | 999.19 | 30.94
338.15 K, x1 = 0.764 | 1008.27 | 82.3
338.15 K, x1 = 0.871 | 1012.58 | 190.24
338.15 K, x1 = 1 | 1016.38 | 327.52
343.15 K, x1 = 0.134 | 941 | 1.328
343.15 K, x1 = 0.265 | 965.31 | 3.431
343.15 K, x1 = 0.352 | 975.92 | 6.246
343.15 K, x1 = 0.457 | 985.94 | 11.3
343.15 K, x1 = 0.591 | 996.09 | 25.86
343.15 K, x1 = 0.764 | 1005.34 | 65.58
343.15 K, x1 = 0.871 | 1009.75 | 143.98
343.15 K, x1 = 1 | 1013.65 | 243.04
348.15 K, x1 = 0.134 | 936.86 | 1.244
348.15 K, x1 = 0.265 | 961.62 | 3.135
348.15 K, x1 = 0.352 | 972.5 | 5.564
348.15 K, x1 = 0.457 | 982.8 | 9.895
348.15 K, x1 = 0.591 | 992.99 | 21.85
348.15 K, x1 = 0.764 | 1002.41 | 52.81
348.15 K, x1 = 0.871 | 1006.93 | 112.06
348.15 K, x1 = 1 | 1010.91 | 183.45
353.15 K, x1 = 0.134 | 932.7 | 1.171
353.15 K, x1 = 0.265 | 957.92 | 2.875
353.15 K, x1 = 0.352 | 969.09 | 5.007
353.15 K, x1 = 0.457 | 979.67 | 8.708
353.15 K, x1 = 0.591 | 989.9 | 18.59
353.15 K, x1 = 0.764 | 999.51 | 43.42
353.15 K, x1 = 0.871 | 1004.11 | 88.51
353.15 K, x1 = 1 | 1008.18 | 140.06

CCCCCCn1cc[n+](C)c1.[Cl-] [1-hexyl-3-methylimidazolium chloride] + CC(=O)N(C)C
Settings | mass density [kg/m3] | viscosity [mPa·s]
303.15 K, x1 = 0.155 | 967.16 | 3.756
303.15 K, x1 = 0.301 | 989.75 | 14.88
303.15 K, x1 = 0.392 | 999.94 | 35.44
303.15 K, x1 = 0.503 | 1009.66 | 92.11
303.15 K, x1 = 0.63 | 1018.78 | 295.88
303.15 K, x1 = 0.794 | 1027.67 | 917.88
303.15 K, x1 = 0.887 | 1032.11 | 2891.3
303.15 K, x1 = 1 | 1036.07 | 5718.5
308.15 K, x1 = 0.155 | 962.92 | 3.352
308.15 K, x1 = 0.301 | 986.11 | 12.57
308.15 K, x1 = 0.392 | 996.46 | 28.6
308.15 K, x1 = 0.503 | 1006.34 | 70.17
308.15 K, x1 = 0.63 | 1015.69 | 212.96
308.15 K, x1 = 0.794 | 1024.64 | 624.84
308.15 K, x1 = 0.887 | 1029.11 | 1853.1
308.15 K, x1 = 1 | 1033.22 | 3430.8
313.15 K, x1 = 0.155 | 958.82 | 3.026
313.15 K, x1 = 0.301 | 982.47 | 10.74
313.15 K, x1 = 0.392 | 992.99 | 23.52
313.15 K, x1 = 0.503 | 1003.03 | 55.61
313.15 K, x1 = 0.63 | 1012.58 | 158.14
313.15 K, x1 = 0.794 | 1021.62 | 440.38
313.15 K, x1 = 0.887 | 1026.14 | 1212.9
313.15 K, x1 = 1 | 1030.38 | 2146.1
318.15 K, x1 = 0.155 | 954.87 | 2.739
318.15 K, x1 = 0.301 | 978.83 | 9.242
318.15 K, x1 = 0.392 | 989.54 | 19.54
318.15 K, x1 = 0.503 | 999.74 | 44.26
318.15 K, x1 = 0.63 | 1009.45 | 119.42
318.15 K, x1 = 0.794 | 1018.61 | 313.65
318.15 K, x1 = 0.887 | 1023.19 | 814.85
318.15 K, x1 = 1 | 1027.56 | 1390.4
323.15 K, x1 = 0.155 | 951 | 2.493
323.15 K, x1 = 0.301 | 975.21 | 8.018
323.15 K, x1 = 0.392 | 986.09 | 16.46
323.15 K, x1 = 0.503 | 996.46 | 35.84
323.15 K, x1 = 0.63 | 1006.33 | 91.95
323.15 K, x1 = 0.794 | 1015.58 | 229.39
323.15 K, x1 = 0.887 | 1020.2 | 563.41
323.15 K, x1 = 1 | 1024.75 | 928.1
328.15 K, x1 = 0.155 | 947.22 | 2.28
328.15 K, x1 = 0.301 | 971.59 | 7.038
328.15 K, x1 = 0.392 | 982.65 | 14
328.15 K, x1 = 0.503 | 993.19 | 29.41
328.15 K, x1 = 0.63 | 1003.22 | 71.92
328.15 K, x1 = 0.794 | 1012.63 | 171.63
328.15 K, x1 = 0.887 | 1017.33 | 400.32
328.15 K, x1 = 1 | 1021.92 | 638.79
333.15 K, x1 = 0.155 | 943.5 | 2.091
333.15 K, x1 = 0.301 | 967.98 | 6.213
333.15 K, x1 = 0.392 | 979.22 | 12.02
333.15 K, x1 = 0.503 | 989.93 | 24.45
333.15 K, x1 = 0.63 | 1000.11 | 57.41
333.15 K, x1 = 0.794 | 1009.73 | 130.32
333.15 K, x1 = 0.887 | 1014.53 | 291.17
333.15 K, x1 = 1 | 1019.13 | 453.59
338.15 K, x1 = 0.155 | 939.77 | 1.931
338.15 K, x1 = 0.301 | 964.37 | 5.522
338.15 K, x1 = 0.392 | 975.8 | 10.41
338.15 K, x1 = 0.503 | 986.68 | 20.82
338.15 K, x1 = 0.63 | 997.03 | 46.28
338.15 K, x1 = 0.794 | 1006.85 | 101.08
338.15 K, x1 = 0.887 | 1011.76 | 216.49
338.15 K, x1 = 1 | 1016.38 | 327.52
343.15 K, x1 = 0.155 | 935.94 | 1.786
343.15 K, x1 = 0.301 | 960.77 | 4.918
343.15 K, x1 = 0.392 | 972.39 | 9.14
343.15 K, x1 = 0.503 | 983.44 | 17.42
343.15 K, x1 = 0.63 | 993.95 | 37.9
343.15 K, x1 = 0.794 | 1003.99 | 79.83
343.15 K, x1 = 0.887 | 1009.01 | 163.62
343.15 K, x1 = 1 | 1013.65 | 243.04
348.15 K, x1 = 0.155 | 932.05 | 1.658
348.15 K, x1 = 0.301 | 957.18 | 4.443
348.15 K, x1 = 0.392 | 968.98 | 8.018
348.15 K, x1 = 0.503 | 980.22 | 14.93
348.15 K, x1 = 0.63 | 990.89 | 31.38
348.15 K, x1 = 0.794 | 1001.15 | 63.75
348.15 K, x1 = 0.887 | 1006.28 | 125.96
348.15 K, x1 = 1 | 1010.91 | 183.45
353.15 K, x1 = 0.155 | 928.09 | 1.542
353.15 K, x1 = 0.301 | 953.59 | 4.015
353.15 K, x1 = 0.392 | 965.58 | 7.115
353.15 K, x1 = 0.503 | 977 | 12.86
353.15 K, x1 = 0.63 | 987.84 | 26.46
353.15 K, x1 = 0.794 | 998.33 | 51.4
353.15 K, x1 = 0.887 | 1003.57 | 98.54
353.15 K, x1 = 1 | 1008.18 | 140.06

Source: the NIST ThermoML archive (doi:10.1016/j.jct.2017.07.016)
